Source: US20190336537A1, “GENERATING ATRIAL AND VENTRICULAR CARDIOMYOCYTE LINEAGES FROM HUMAN PLURIPOTENT STEM CELLS” (UNIVERSITY HEALTH NETWORK, priority 2016, published 2019)

Key:
[1] = system: HES3 NKX2-5:GFP hESC-derived day 20 EB populations; assay: Flow cytometric and immunostaining analyses of day 20 EB populations (CTNT, MLC2V, NKX2-5, COUPTFII); type: cell-based, human; set-up: frequency of NKX2-5+SIRPa+ cells in day 20 populations: dose or concentration left out as unconfirmed
Protocol: (§1) For cardiac differentiation, we used a modified version of our embryoid body (EB)-based protocol (Kattman et al., 2011). hPSC populations at 80%-90% confluence were dissociated into single cells (TrypLE, ThermoFisher) and re-aggregated to form EBs in StemPro-34 media (ThermoFisher) containing penicillin/streptomycin (1%, ThermoFisher), L-glutamine (2 mM, ThermoFisher), trans-ferrin (150 μg/ml, ROCHE), ascorbic acid (50 μg/ml, Sigma), and monothioglycerol (50 μg/ml, Sigma), ROCK inhibitor Y-27632 (10 μM, TOCRIS) and rhBMP4 (1 ng/ml, R&D) for 18 h on an orbital shaker. At day 1, the EBs were transferred to mesoderm induction media consisting of StemPro-34 with above supplements (-ROCK inhibitor Y-27632) and rhBMP4, rhActivinA (R&D) and rhbFGF (5 ng/ml, R&D) at the indicated concentrations. At day 3, the EBs were harvested, washed with IMDM and transferred to cardiac mesoderm specification media consisting of StemPro-34, the Wnt inhibitor IWP2 (1 μM, TOCRIS) and rhVEGF (10 ng/mL, R&D). At day 5, the EBs were transferred to Stem Pro-34 with rhVEGF (5 ng/ml) for another 7 days and then to Stem Pro-34 media without additional cytokines for further 8 days. At day 20, HES3-NKX2-5gfp/w-derived cardiomyocytes were analyzed and isolated based on the expression of NKX2-5:GFP and SIRPa and a lack of CD90. Cardiomyocytes generated from non-transgenic hPSC lines were analyzed and isolated as SIRPa+CD90− populations. Media was changed every 3 days. Cultures were incubated in a low oxygen environment (5% CO2, 5% O2, 90% N2) for first 12 days and a normoxic environment (5% CO2) for the following 8 days in total of 20 days. The EBs were cultured in ultra-low attachment 6-well dishes (Corning) throughout the differentiation for maintaining suspension cultures.
(§2) Day 2-6 EBs were dissociated with TrypLE for 2-4 min at room temperature (RT). Day 20 EBs were dissociated by incubation in Collagenase type 2 (0.5 mg/ml, Worthington) in HANKs buffer overnight at RT followed by TrypLE treatment as described above. The following antibodies were used for staining: anti-PDGFRa-PE (R&D Systems, 3:50), anti-CD235a-APC (BD PharMingen, 1:100), antiSIRPa-PeCy7 (Biolegend, 1:1000), anti-CD90-APC (BD PharMingen, 1:1000), anticardiac isoform of CTNT (ThermoFisher Scientific, 1:2000), or anti-myosin light chain 2 (Abcam, 1:1000). For unconjugated primary antibodies, the following secondary antibodies were used for detection: goat anti-mouse IgG-APC (BD Pharmigen, 1:250), or donkey anti-rabbit IgG-PE (Jackson ImmunoResearch, 1:250). Detailed antibody information is described in Table 2.
For cell-surface marker analyses, cells were stained for 30 min at 4 degrees C. in FACS buffer consisting of PBS with 5% fetal calf serum (FCS) (Wisent) and 0.02% sodium azide. For intracellular staining, cells were fixed for 15 min at 4 degrees C. with 4% PFA in PBS followed by permeabilization using 90% methanol for 20 min at 4 degrees C. Cells were washed with PBS containing 0.5% BSA (Sigma) and stained with unconjugated primary antibodies in FACS buffer overnight at 4 degrees C. Stained cells were washed with PBS with 0.5% BSA and stained with secondary antibodies in FACS buffer for 1 h at 4 degrees C.
Stained cells were analyzed using the LSR II Flow cytometer (BD). For cell sorting, stained cells were kept in IMDM with 0.5% FCS and sorted using Influx (BD), FACSAriall (BD), MoFlo-XDP (BD) and FACSAria Fusion (BD) at the Sickids/UHN flow cytometry facility. Data were analyzed using FlowJo software (Tree Star).
Day 20 EBs were dissociated as described above and the cells plated onto 12 mm cover glasses (VWR) pre-coated with matrigel (25% v/v, BD). Cells were cultured for 3-5 days to enable the formation of adherent cell monolayers. Cells were fixed with
4% PFA in PBS for 10 min at room temperature and permeabilized with PBS containing 0.3% TritonX, 200 mM Glycine (Sigma) for 20 min at RT. Cells were blocked with PBS containing 10% FCS, 0.1% TritonX, and 2% BSA. […]

[2] = system: HES3 NKX2-5:GFP hESC-derived mesoderm; assay: Specification of mesoderm populations to an atrial fate by ROH or RA (day 20 flow cytometry and qRT-PCR); type: cell-based, human
Protocol: To determine if the ALDH^+ cells can synthesize RA, the ALDH^+PDGFRalpha^+ and ALDH^− PDGFRalpha^+ fractions were isolated from the day 4 3B/2A-induced population, and the cells were cultured as aggregates in retinol (ROH), RA, or DMSO (control) for 24 hr (FIGS. 3A and 3B). ALDH1A2 expression segregated to the ALDH^+ fraction, confirming the validity of aldefluor-based sorting strategy for isolating RALDH2-expressing cells (FIG. 3C).
as §1
Following optimization, either ATRA (0.5 μM, Sigma) or retinol (2 μM, Sigma) was included in the cardiac mesoderm specification media from days 3-5 for the generation of atrial cardiomyocytes.
as §2
The Aldefluor™ assay (STEMCELL Technologies) was performed according to the instruction provided by the manufacturer. Briefly, day 2-6 EBs were dissociated as described above. […] Stained cells were analyzed as described above. […]

[3] = day 3 RA-treated mesoderm versus non-treated control

With `CC1=C(/C=C/C(C)=C/C=C/C(C)=C/C(=O)O)C(C)(C)CCC1` [RA, all trans retinoic acid] the “frequency of NKX2-5+SIRPa+ cells in day 20 populations” value ([1]; RA) was “dramatic reduction”, the “proportion of NKX2-5-GFP− cells” value ([1]; RA treatment days 3-5, day 20) was “did not influence” and the “frequency of COUPTFII+ cells” value [1, 3] was “much higher frequency”. The “proportion of MLC2V+ cells” value [1, 3] was “dramatic reduction”, the “atrial specification (MLC2V+, IRX4, KCNJ3, NR2F2)” value ([2]; 5B/12A-induced EBs, treated days 3-5) was “able to induce an atrial-like cardiomyocyte phenotype” and the “atrial specification (MLC2V+ frequency, IRX4, KCNJ3)” value ([2]; ALDH+PDGFRalpha+ fraction, day 4, 3B/2A induced, 24 hr treatment) was “similar”.
